Data from a flash point compilation (Sun et al. 2020).

In order of rising flash point:
1. CCN(C)C [N-ethyldimethylamine]  -36 °C
2. C=CCN [allylamine]  -28 °C
3. C/C=C\CCC [cis-2-hexene]  -25 °C
4. CNC(C)C [N-methylisopropylamine]  -20 °C
5. CC(C)=O [acetone]  -20 °C
6. CCBr [bromoethane]  -20 °C
7. CCCCOC [butylmethylether]  -10 °C
8. CC/C=C\CCC [cis-3-heptene]  -9 °C
9. C#CCCC(C)C [5-methyl-1-hexyne]  -7 °C
10. CCCC=O [butanal]  -7 °C
11. C/C=C\CCCC [cis-2-heptene]  -6 °C
12. NC1CCC1 [cyclobutylamine]  -4 °C
13. CCCCNC [N-methylbutylamine]  2 °C
14. CC#N [acetonitrile]  2 °C
15. C[C@H]1CC[C@@H](C)CC1 [cis-1,4-dimethylcyclohexane]  6 °C
16. CN1CCOCC1 [N-methylmorpholine]  14 °C
17. ClC1CCCC1 [chlorocyclopentane]  15 °C
18. C=CC1CC=CCC1 (stereo not given) [4-vinyl-1-cyclohexene]  16 °C
19. CCC/C=C\CCC [cis-4-octene]  17 °C
20. CCCCOC=O [butylformate]  18 °C
21. CCCC#N [butyronitrile]  18 °C
22. C1CCC2OC2C1 (stereo not given) [cyclohexeneoxide]  24 °C
23. CCCCOC(C)=O [butylacetate]  25 °C
24. Clc1ccccc1 [chlorobenzene]  28 °C
25. CC=C1CC2C=CC1C2 (stereo not given) [5-ethylidene-2-norbornene]  29 °C
26. C=CCSCCC [allylpropylsulfide]  29 °C
27. CCCCC1CCCC1 [butylcyclopentane]  32 °C
28. CC(=O)CCC(C)C [5-methyl-2-hexanone]  36 °C
29. CCCCOC(=O)CC [butylpropanoate]  38 °C
30. CC(=O)O [aceticacid]  40 °C
31. O=CC1CCCCC1 [cyclohexanecarboxaldehyde]  41 °C
32. C=CCOC(=O)CCC [allylbutanoate]  42 °C
33. NCC1CCCCC1 [(aminomethyl)cyclohexane]  43 °C
34. O=C1CCCCC1 [cyclohexanone]  43 °C
35. C=CCCCCO [5-hexen-1-ol]  47 °C
36. Sc1ccccc1 [benzenethiol]  51 °C
37. Brc1ccccc1 [bromobenzene]  51 °C
38. COCc1ccccc1 [benzylmethylether]  53 °C
39. O=C1CCCCCC1 [cycloheptanone]  56 °C
40. CN(C)C=O [N,N-dimethylformamide]  57 °C
41. C1CC[C@H]2CCCC[C@H]2C1 [cis-decalin]  57 °C
42. COCCNCCOC [bis(2-methoxyethyl)amine]  58 °C
43. ClCc1ccccc1 [benzylchloride]  60 °C
44. O=Cc1ccccc1 [benzaldehyde]  62 °C
45. BrC1CCCCC1 [bromocyclohexane]  62 °C
46. C=CN(C)C(C)=O [N-vinyl-N-methylacetamide]  63 °C
47. C=CCOc1ccccc1 [allylphenylether]  63 °C
48. OC1CCCCC1 [cyclohexanol]  63 °C
49. NCc1ccccc1 [benzylamine]  65 °C
50. CCCC#CCCCCCC [4-undecyne]  66 °C
51. CCCCC#CCCCCC [5-undecyne]  66 °C
52. CCCC(=O)O [butanoicacid]  69 °C
53. Nc1ccccc1 [aniline]  70 °C
54. N#Cc1ccccc1 [benzonitrile]  70 °C
55. CC1CCCC(=O)CCC1 [5-methylcyclooctanone]  71 °C
56. CSCc1ccccc1 [benzylmethylsulfide]  73 °C
57. CCN(CC)C(C)=O [N,N-diethylacetamide]  76 °C
58. CC(=O)c1ccccc1 [acetophenone]  77 °C
59. CCC#CCCCCCCCl [10-chloro-3-decyne]  86 °C
60. CCNC=O [N-ethylformamide]  86 °C
61. CCC(C)Nc1ccccc1 (stereo not given) [N-sec-butylaniline]  93 °C
62. CCC(=O)OCc1ccccc1 [benzylpropanoate]  96 °C
63. CC(C)(C)c1ccc(N)cc1 [4-tert-butylaniline]  102 °C
64. CCCc1ccc(O)cc1 [4-propylphenol]  106 °C
65. CCC(C)c1ccc(N)cc1 (stereo not given) [4-sec-butylaniline]  108 °C
